Legend:
DIPGX29 [1] = H3.3 K27M diffuse intrinsic pontine glioma line; experiment: maximal growth inhibition (yFin) relative to DMSO / staurosporine; higher = more efficacious
Method in brief: (§1)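 Compounds were delivered by pin tool as a 10-point threefold dilution series with a mean top concentration of 35 μM, in triplicate, to patient-derived pHGG/DIPG cell lines and astrocyte controls growing on 1% Geltrex-coated 384-well plates. Incubation lasted 7 days, or 3 days for iAstro, at 37 °C with 5% CO2. EC50 and maximal response (yFin) come from the three- or four-parameter log-logistic fit with the lowest AICc, applied to pooled, log2-transformed CellTiter-Glo luminescence normalised per plate to % activity between solvent (negative) and positive control wells.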

DIPGX37 [2] = H3.3 K27M diffuse intrinsic pontine glioma line; experiment: as above
Method in brief: as §1

DIPGX7 [3] = H3.3 K27M diffuse intrinsic pontine glioma line; experiment: as above
Method in brief: as §1

DIPGX9 [4] = diffuse intrinsic pontine glioma line; experiment: as above
Method in brief: as §1

HGGX2 [5] = paediatric high-grade glioma line; experiment: as above
Method in brief: as §1

HGGX39 [6] = paediatric high-grade glioma line; experiment: as above
Method in brief: as §1

HGGX42 [7] = H3.3 G34R paediatric high-grade glioma line; experiment: as above
Method in brief: as §1

SUDIPGIV [8] = diffuse intrinsic pontine glioma line; experiment: as above
Method in brief: as §1

SUDIPGVI [9] = diffuse intrinsic pontine glioma line; experiment: as above
Method in brief: as §1

SUDIPGXIII [10] = diffuse intrinsic pontine glioma line; experiment: as above
Method in brief: as §1

SUDIPGXIX [11] = diffuse intrinsic pontine glioma line; experiment: as above
Method in brief: as §1

SUDIPGXXI [12] = diffuse intrinsic pontine glioma line; experiment: as above
Method in brief: as §1

iAstro [13] = astrocyte control; experiment: as above
Method in brief: as §1

DIPGX29 [14] = experiment: area under dose-response curve of % growth inhibition (log2 RLU vs DMSO / staurosporine), 1e-11 to 1e-4 M (% x log10 M); higher = more growth inhibition
Method in brief: (§2)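 Area under the curve was derived with the trapezoid rule from a fitted log-logistic curve, switching to a smoothing spline if the sigmoid fit failed. It rested on per-plate % activity between solvent and positive controls, calculated from log2-transformed CellTiter-Glo luminescence after 7 days of exposure (3 days for iAstro) at 37 °C, 5% CO2. Patient-derived pHGG/DIPG lines and astrocytes on 1% Geltrex-coated 384-well plates received a 10-point threefold dilution series, mean top concentration 35 μM, in triplicate.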

DIPGX37 [15] = experiment: as above
Method in brief: as §2

DIPGX7 [16] = experiment: as above
Method in brief: as §2

DIPGX9 [17] = experiment: as above
Method in brief: as §2

HABS = astrocyte control; experiment: as above
Method in brief: as §2

HGGX2 [18] = experiment: as above
Method in brief: as §2

HGGX39 [19] = experiment: as above
Method in brief: as §2

HGGX42 [20] = experiment: as above
Method in brief: as §2

HGGX6 = H3.3 G34R paediatric high-grade glioma line; experiment: as above
Method in brief: as §2

SUDIPGIV [21] = experiment: as above
Method in brief: as §2

SUDIPGVI [22] = experiment: as above
Method in brief: as §2

SUDIPGXIII [23] = experiment: as above
Method in brief: as §2

SUDIPGXIX [24] = experiment: as above
Method in brief: as §2

SUDIPGXVII = diffuse intrinsic pontine glioma line; experiment: as above
Method in brief: as §2

SUDIPGXXI [25] = experiment: as above
Method in brief: as §2

iAstro [26] = experiment: as above
Method in brief: as §2

Row | SMILES | maximal growth inhibition (DIPGX29 [1]) [%] | maximal growth inhibition (DIPGX37 [2]) [%] | maximal growth inhibition (DIPGX7 [3]) [%] | maximal growth inhibition (DIPGX9 [4]) [%] | maximal growth inhibition (HGGX2 [5]) [%] | maximal growth inhibition (HGGX39 [6]) [%] | maximal growth inhibition (HGGX42 [7]) [%] | maximal growth inhibition (SUDIPGIV [8]) [%] | maximal growth inhibition (SUDIPGVI [9]) [%] | maximal growth inhibition (SUDIPGXIII [10]) [%] | maximal growth inhibition (SUDIPGXIX [11]) [%] | maximal growth inhibition (SUDIPGXXI [12]) [%] | maximal growth inhibition (iAstro [13]) [%] | area under dose-response curve (DIPGX29 [14]) | area under dose-response curve (DIPGX37 [15]) | area under dose-response curve (DIPGX7 [16]) | area under dose-response curve (DIPGX9 [17]) | area under dose-response curve (HABS) | area under dose-response curve (HGGX2 [18]) | area under dose-response curve (HGGX39 [19]) | area under dose-response curve (HGGX42 [20]) | area under dose-response curve (HGGX6) | area under dose-response curve (SUDIPGIV [21]) | area under dose-response curve (SUDIPGVI [22]) | area under dose-response curve (SUDIPGXIII [23]) | area under dose-response curve (SUDIPGXIX [24]) | area under dose-response curve (SUDIPGXVII) | area under dose-response curve (SUDIPGXXI [25]) | area under dose-response curve (iAstro [26])
1 | C[C@@]12OC(=O)[C@]1([C@@H](O)[C@@H]1C=CCCC1)NC(=O)[C@@H]2CCCl [MARIZOMIB] | 32.8 | 99.7 | 101 | 101 | 98.7 | 96.6 | 62.8 | 119 | 103 | 28.3 | 94.2 | 109 | 89.6 | 100 | 254 | 251 | 302 | 149 | 337 | 241 | 163 | 135 | 407 | 331 | 75.8 | 229 | 108 | 422 | 375
2 | Nc1ccccc1NC(=O)c1ccc(CNc2nccc(-c3cccnc3)n2)cc1 [MOCETINOSTAT] | 78.5 | 96 | 104 | 103 | 96.5 | 96.8 | 78 | 104 | 97.2 | 74.1 | 100 | 126 | 38.2 | 144 | 146 | 147 | 232 | 135 | 165 | 133 | 115 | 129 | 175 | 184 | 117 | 147 | 155 | 319 | 70.7
3 | O=C(Nc1ccc([N+](=O)[O-])cc1Cl)c1cc(Cl)ccc1O [NICOLSAMIDE] | 78.2 | 81.9 | 86 | 94 | 93.8 | 96.9 | 87.9 | 92.4 | 74.1 | 84.2 | 89 | 110 | 34.7 | 123 | 142 | 153 | 150 | 116 | 119 | 115 | 129 | 85.2 | 146 | 109 | 167 | 142 | 141 | 232 | 49.6
4 | CCNC(=O)c1noc(-c2cc(C(C)C)c(O)cc2O)c1-c1ccc(CN2CCOCC2)cc1 [NVP-AUY922] | 80.4 | 82.2 | 48.5 | 84.4 | 49.9 | 80.3 | 34.4 | 55.9 | 35.2 | 61.3 | 76.3 | 115 | 51 | 204 | 285 | 94.5 | 294 | 285 | 180 | 275 | 147 | 99.4 | 183 | 118 | 213 | 274 | 218 | 318 | 118
5 | CCCS(=O)(=O)c1nc(NC2CC2)cc(-c2ccc3c(ccn3C3CC(C)(C)NC(C)(C)C3)c2)n1 [NVS-1] | 82.2 | 79.6 | 95.1 | 88.9 | 86.7 | 82.8 | 88.2 | 90.5 | 88.4 | 88.4 | 90.7 | 104 | 83.2 | 172 | 159 | 166 | 152 | 124 | 169 | 130 | 185 | 145 | 138 | 158 | 163 | 174 | 154 | 140 | 143
6 | COC1=CC(c2cc3ccccc3[nH]2)=N/C1=C\c1[nH]c(C)cc1C [OBATOCLAX] | 126 | 128 | 129 | 131 | 115 | 124 | 119 | 131 | 128 | 108 | 143 | 127 | 101 | 174 | 167 | 219 | 177 | 138 | 217 | 165 | 196 | 136 | 177 | 210 | 128 | 216 | 128 | 280 | 141
7 | C[C@@H]1O[C@@H](O[C@H]2C[C@@H](O)[C@]3(CO)[C@H]4[C@H](O)C[C@]5(C)[C@@H](C6=CC(=O)OC6)CC[C@]5(O)[C@@H]4CC[C@]3(O)C2)[C@H](O)[C@H](O)[C@H]1O [OUABAIN] | 53.4 | 46.7 | 100 | 70.1 | 63.9 | 75.1 | 53.3 | 103 | 60.1 | 46.9 | 83.6 | 90.6 | 47.1 | 175 | 126 | 279 | 168 | 133 | 173 | 218 | 127 | 173 | 284 | 123 | 107 | 202 | 186 | 251 | 135
8 | Cc1[nH]c2ccccc2c1CCNCc1ccc(/C=C/C(=O)NO)cc1 [PANOBINOSTAT] | 76.5 | 76.5 | 89 | 90.7 | 90 | 75.6 | 95.5 | 86.4 | 86.9 | 93.9 | 106 | 110 | 48 | 228 | 220 | 243 | 287 | 272 | 253 | 212 | 282 | 216 | 252 | 249 | 195 | 293 | 244 | 355 | 134
9 | OC1(c2ccc(Cl)c(C(F)(F)F)c2)CCN(CCCC(c2ccc(F)cc2)c2ccc(F)cc2)CC1 [PENFLURIDOL] | 94.8 | 93.5 | 102 | 105 | 98.9 | 91 | 98.5 | 97.2 | 98.5 | 92.8 | 97.4 | 106 | 85.2 | 135 | 126 | 163 | 147 | 78.4 | 175 | 113 | 160 | 104 | 152 | 126 | 110 | 149 | 126 | 201 | 136
10 | Cc1ccc(C(=O)Nc2ccc(CN3CCN(C)CC3)c(C(F)(F)F)c2)cc1C#Cc1cnc2cccnn12 [PONATINIB] | 104 | 101 | 101 | 94.2 | 99.6 | 99.3 | 99 | 100 | 97.8 | 96 | 99.8 | 97.2 | 95 | 134 | 141 | 155 | 252 | 194 | 163 | 148 | 164 | 155 | 102 | 119 | 132 | 132 | 125 | 345 | 128
11 | O=C(Nc1ccccc1-c1cn2c(CN3CCNCC3)csc2n1)c1cnc2ccccc2n1 [SRT1720] | 94.6 | 94.6 | 102 | 103 | 99.1 | 95.5 | 102 | 104 | 93.9 | 94.6 | 104 | 105 | 91.6 | 110 | 113 | 143 | 146 | 91.1 | 158 | 103 | 152 | 102 | 146 | 154 | 122 | 139 | 96.6 | 178 | 131
12 | CCN(CC)CCNC(=O)c1c(C)[nH]c(/C=C2\C(=O)Nc3ccc(F)cc32)c1C [SUNITINIB] | 103 | 101 | 116 | 117 | 108 | 105 | 112 | 119 | 108 | 113 | 129 | 115 | 97.5 | 97.9 | 103 | 123 | 129 | 122 | 141 | 100 | 193 | 95.1 | 99.2 | 124 | 144 | 135 | 128 | 176 | 113
